Key:
[1] = anaerostipes sp., 12 h, 2 µM
Description: The drug is tested on Anaerostipes sp. strain: fecal isolate for biotransformation. The drug concentrations were measured before and after a 12-h incubation by liquid-chromatography-coupled mass spectrometry (LC–MS)

[2] = The drug is tested on Edwardsiella tarda strain: ATCC23685 for biotransformation. The drug concentrations were measured before and after a 12-h incubation by liquid-chromatography-coupled mass spectrometry (LC–MS); conditions: 2 µM
[3] = enterocloster bolteae, 12 h, 2 µM
Description: The drug is tested on Clostridium bolteae strain: ATCCBAA-613 for biotransformation. The drug concentrations were measured before and after a 12-h incubation by liquid-chromatography-coupled mass spectrometry (LC–MS)

[4] = The drug is tested on Bacteroides vulgatus strain: ATCC8482 for biotransformation. The drug concentrations were measured before and after a 12-h incubation by liquid-chromatography-coupled mass spectrometry (LC–MS); conditions: phocaeicola vulgatus, 2 µM
[5] = The drug is tested on Clostridium symbiosum strain: ATCC14940 for biotransformation. The drug concentrations were measured before and after a 12-h incubation by liquid-chromatography-coupled mass spectrometry (LC–MS); conditions: 2 µM
[6] = roseburia intestinalis, 12 h, 2 µM
Description: The drug is tested on Roseburia intestinalis strain: L1-82 for biotransformation. The drug concentrations were measured before and after a 12-h incubation by liquid-chromatography-coupled mass spectrometry (LC–MS)

[7] = The drug is tested on Ruminococcus gnavus strain: ATCC29149 for biotransformation. The drug concentrations were measured before and after a 12-h incubation by liquid-chromatography-coupled mass spectrometry (LC–MS); conditions: mediterraneibacter gnavus, 2 µM
[8] = The drug is tested on Eggerthella lenta strain: ATCC25559 for biotransformation. The drug concentrations were measured before and after a 12-h incubation by liquid-chromatography-coupled mass spectrometry (LC–MS); conditions: 2 µM
[9] = The drug is tested on Clostridium sp. strain: fecal isolate for biotransformation. The drug concentrations were measured before and after a 12-h incubation by liquid-chromatography-coupled mass spectrometry (LC–MS); conditions: 2 µM
[10] = The drug is tested on Bacteroides ovatus strain: ATCC8483 for biotransformation. The drug concentrations were measured before and after a 12-h incubation by liquid-chromatography-coupled mass spectrometry (LC–MS); conditions: 2 µM
[11] = bacteroides fragilis, 12 h, 2 µM
Description: The drug is tested on Bacteroides fragilis strain: DS-208 for biotransformation. The drug concentrations were measured before and after a 12-h incubation by liquid-chromatography-coupled mass spectrometry (LC–MS)

[12] = The drug is tested on Bacteroides pectinophilus strain: ATCC43243 for biotransformation. The drug concentrations were measured before and after a 12-h incubation by liquid-chromatography-coupled mass spectrometry (LC–MS); conditions: 2 µM
[13] = bacteroides stercoris, 12 h, 2 µM
Description: The drug is tested on Bacteroides stercoris strain: ATCC43183 for biotransformation. The drug concentrations were measured before and after a 12-h incubation by liquid-chromatography-coupled mass spectrometry (LC–MS)

[14] = The drug is tested on Blautia hansenii strain: DSM20583 for biotransformation. The drug concentrations were measured before and after a 12-h incubation by liquid-chromatography-coupled mass spectrometry (LC–MS); conditions: 2 µM
[15] = segatella copri, 12 h, 2 µM
Description: The drug is tested on Prevotella copri strain: DSM18205 for biotransformation. The drug concentrations were measured before and after a 12-h incubation by liquid-chromatography-coupled mass spectrometry (LC–MS)

[16] = The drug is tested on Ruminococcus torques strain: ATCC27756 for biotransformation. The drug concentrations were measured before and after a 12-h incubation by liquid-chromatography-coupled mass spectrometry (LC–MS); type: ADME; design: dose 2 uM, timepoint 0 vs 12 hours; conditions: 2 µM
[17] = The drug is tested on Bacteroides cellulosilyticus strain: DSM14838 for biotransformation. The drug concentrations were measured before and after a 12-h incubation by liquid-chromatography-coupled mass spectrometry (LC–MS); conditions: 2 µM
[18] = The drug is tested on Enterobacter cancerogenus strain: ATCC35316 for biotransformation. The drug concentrations were measured before and after a 12-h incubation by liquid-chromatography-coupled mass spectrometry (LC–MS); conditions: 2 µM
[19] = bacteroides thetaiotaomicron, 12 h, 2 µM
Description: The drug is tested on Bacteroides thetaiotaomicron strain: 7330 for biotransformation. The drug concentrations were measured before and after a 12-h incubation by liquid-chromatography-coupled mass spectrometry (LC–MS)

[20] = The drug is tested on Bifidobacterium ruminantium strain: fecal isolate for biotransformation. The drug concentrations were measured before and after a 12-h incubation by liquid-chromatography-coupled mass spectrometry (LC–MS); conditions: 2 µM

| SMILES | Bacterial Biotransformation [1] | Bacterial Biotransformation [2] | Bacterial Biotransformation [3] | Bacterial Biotransformation [4] | Bacterial Biotransformation [5] | Bacterial Biotransformation [6] | Bacterial Biotransformation [7] | Bacterial Biotransformation [8] | Bacterial Biotransformation [9] | Bacterial Biotransformation [10] | Bacterial Biotransformation [11] | Bacterial Biotransformation [12] | Bacterial Biotransformation [13] | Bacterial Biotransformation [14] | Bacterial Biotransformation [15] | Bacterial Biotransformation [16] | Bacterial Biotransformation [17] | Bacterial Biotransformation [18] | Bacterial Biotransformation [19] | Bacterial Biotransformation [20] |
| --- | --- | --- | --- | --- | --- | --- | --- | --- | --- | --- | --- | --- | --- | --- | --- | --- | --- | --- | --- | --- |
| CC(C)(C)NCC(O)c1cc(Cl)c(N)c(Cl)c1 (stereo unspecified) [CLENBUTEROL] | Compound NOT metabolized | Compound NOT metabolized | Compound NOT metabolized | Compound NOT metabolized | Compound NOT metabolized | Compound NOT metabolized | Compound NOT metabolized | Compound NOT metabolized | Compound NOT metabolized | Compound NOT metabolized | Compound NOT metabolized | Compound NOT metabolized | Compound NOT metabolized | Compound NOT metabolized | Compound NOT metabolized | Compound NOT metabolized | Compound NOT metabolized | Compound NOT metabolized | – | – |
| COc1ccc2[nH]c([S+]([O-])Cc3ncc(C)c(OC)c3C)nc2n1 (stereo unspecified) [TENATOPRAZOLE] | – | Compound metabolized | – | Compound metabolized | – | Compound metabolized | Compound metabolized | Compound metabolized | Compound metabolized | Compound metabolized | Compound metabolized | Compound metabolized | Compound metabolized | Compound metabolized | Compound metabolized | Compound metabolized | Compound metabolized | Compound metabolized | Compound metabolized | Compound metabolized |
| CCOC(=O)C1=C(C)NC(C)=C(C(=O)OC)C1c1cccc([N+](=O)[O-])c1 (stereo unspecified) [NITRENDIPINE] | Compound metabolized | Compound metabolized | Compound metabolized | Compound metabolized | Compound metabolized | Compound metabolized | Compound metabolized | Compound metabolized | Compound metabolized | – | Compound metabolized | Compound metabolized | Compound metabolized | Compound metabolized | Compound metabolized | Compound metabolized | Compound metabolized | Compound NOT metabolized | Compound metabolized | Compound metabolized |
| CC#C[C@]1(O)CC[C@H]2[C@@H]3CCC4=CC(=O)CCC4=C3[C@@H](c3ccc(N(C)C)cc3)C[C@@]21C [MIFEPRISTONE] | Compound NOT metabolized | Compound NOT metabolized | Compound NOT metabolized | Compound metabolized | Compound NOT metabolized | Compound NOT metabolized | Compound NOT metabolized | Compound NOT metabolized | Compound metabolized | – | Compound NOT metabolized | Compound NOT metabolized | Compound metabolized | Compound metabolized | Compound NOT metabolized | Compound NOT metabolized | Compound NOT metabolized | Compound NOT metabolized | Compound NOT metabolized | – |
| CC(NC(C)(C)C)C(=O)c1cccc(Cl)c1 (stereo unspecified) [BUPROPION] | Compound NOT metabolized | Compound NOT metabolized | Compound NOT metabolized | Compound NOT metabolized | – | – | Compound NOT metabolized | Compound NOT metabolized | Compound NOT metabolized | Compound metabolized | Compound NOT metabolized | – | Compound NOT metabolized | Compound NOT metabolized | Compound NOT metabolized | Compound NOT metabolized | Compound NOT metabolized | Compound NOT metabolized | Compound NOT metabolized | Compound metabolized |
| CN1CCN(CC/C=C2/c3ccccc3Sc3ccc(S(=O)(=O)N(C)C)cc32)CC1 [THIOTHIXENE] | Compound metabolized | Compound metabolized | Compound metabolized | Compound metabolized | Compound NOT metabolized | Compound metabolized | Compound NOT metabolized | Compound NOT metabolized | Compound metabolized | Compound NOT metabolized | Compound NOT metabolized | Compound NOT metabolized | Compound metabolized | Compound metabolized | Compound metabolized | Compound NOT metabolized | Compound metabolized | Compound metabolized | Compound NOT metabolized | – |
| CCc1oc2ccccc2c1C(=O)c1cc(Br)c(O)c(Br)c1 [BENZBROMARONE] | Compound NOT metabolized | Compound NOT metabolized | – | Compound NOT metabolized | Compound NOT metabolized | Compound NOT metabolized | Compound NOT metabolized | Compound NOT metabolized | Compound NOT metabolized | Compound NOT metabolized | Compound NOT metabolized | Compound NOT metabolized | Compound NOT metabolized | Compound NOT metabolized | Compound NOT metabolized | – | Compound NOT metabolized | Compound NOT metabolized | Compound NOT metabolized | Compound NOT metabolized |
| CCOc1cc(CC(=O)N[C@@H](CC(C)C)c2ccccc2N2CCCCC2)ccc1C(=O)O [REPAGLINIDE] | Compound NOT metabolized | Compound NOT metabolized | Compound metabolized | Compound NOT metabolized | Compound metabolized | Compound NOT metabolized | Compound NOT metabolized | Compound NOT metabolized | Compound NOT metabolized | Compound NOT metabolized | – | Compound NOT metabolized | Compound metabolized | Compound NOT metabolized | Compound NOT metabolized | Compound NOT metabolized | Compound metabolized | Compound NOT metabolized | Compound metabolized | Compound NOT metabolized |
| CN1C(=O)CCS(=O)(=O)C1c1ccc(Cl)cc1 (stereo unspecified) [CHLORMEZANONE] | Compound NOT metabolized | Compound NOT metabolized | Compound NOT metabolized | Compound metabolized | Compound NOT metabolized | – | – | Compound NOT metabolized | Compound metabolized | Compound NOT metabolized | Compound NOT metabolized | Compound NOT metabolized | – | Compound metabolized | Compound NOT metabolized | Compound NOT metabolized | Compound NOT metabolized | Compound NOT metabolized | – | Compound metabolized |

From ChEMBL document CHEMBL5303573, “Mapping human microbiome drug metabolism by gut bacteria and their genes” (Nature, 2019)
